For 54 compounds, IC50 results are on record in US8653087B2, “Pyrido [5, 4-D] pyrimidines as cell proliferation inhibitors” (Boehringer Ingelheim International GmbH, priority 2008, dated 2014).

This assay has as its target B-Raf (V600E)-kinase (Homo sapiens (Human), UniProt P15056, V600E). In words: Kinase test B-RAF (V600E). To be noted: B-RAF (V600E) kinase test, 250 μM ATP. The assay is classed as biochemical. Here is the method: Kinase Test B-RAF (V600E)
In a dilution series 10 μL of test substance solution are placed in a multiwell plate. The dilution series is selected so that generally a range of concentrations of 2 μM to 0.119 nM or 0.017 nM is covered. If necessary the initial concentration of 2 μM is changed to 50 μM, 10 μM or 0.4 μM or 0.2857 μM and further dilution is carried out accordingly. The final concentration of DMSO is 5%. 10 μL of the B-Raf (V600E)-kinase solution are pipetted in (containing 0.5 ng B-Raf (V600E)-kinase in 20 mM Tris-HCl pH 7.5, 0.1 mM EDTA, 0.1 mM EGTA, 0.286 mM sodium orthovanadate, 10% glycerol, 1 mg/mL bovine serum albumin, 1 mM dithiothreitol) and the mixture is incubated for 24 h at RT under with shaking. The kinase reaction is started by the addition of 20 μL ATP solution [final concentration: 250 μM ATP, 30 mM Tris-HCl pH 7.5, 0.02% Brij, 0.2 mM sodium orthovanadate, 10 mM magnesium acetate, 0.1 mM EGTA, phosphatase cocktail (Sigma, # P2850, dilution recommended by the manufacturer), 0.1 mM EGTA] and 10 μL MEK1 solution [containing 50 ng biotinylated MEK1 (prepared from purified MEK1 according to standard procedure, e.g. with EZ-Link Sulpho-NHS-LC-Biotin reagent, Pierce, #21335) and carried out for 60 min at RT with constant shaking. The reaction is stopped by the addition of 12 μL of a 100 mM EDTA solution and incubation is continued for a further 5 min. 55 μL of the reaction solution are transferred into a streptavidin-coated plate (e.g. Streptawell HighBond, Roche, #11989685001) and shaken gently for 1 h at RT, in order to bind biotinylated MEK1 to the plate. After elimination of the liquid the plate is washed five times with 200 μL of 1×PBS and 100 μL solution of primary antibody plus europium-labelled secondary antibody [Anti Phospho-MEK (Ser217/221), Cell Signaling, #9121 and Eu-N1 labeled goat-anti-rabbit antibody, Perkin Elmer, # AD0105], the primary antibody is diluted 1:2000 and the secondary antibody is diluted to 0.4-0.5 μg/mL in Delfia Assay Buffer (Perkin Elmer, #1244-111). After 1 h shaking at RT the solution is poured away and washed five times with 200 μL Delfia Wash Buffer (Perkin Elmer, #4010-0010/#1244-114). After the addition of 200 μL Enhancement Solution (Perkin Elmer, #4001-0010/#1244-105) the mixture is shaken for 10 min at RT and then measured in a Wallac Victor using the program “Delfia Time Resolved Fluorescence (Europium)”. IC50 values are obtained from these dosage-activity curves using a software program (GraphPadPrizm).

Where only a bound is given, the exact number is not on record here.

One may read the IC50 as the concentration that inhibits the measured activity by half.

Sequence of B-Raf (V600E)-kinase (P15056 whole entry V600E): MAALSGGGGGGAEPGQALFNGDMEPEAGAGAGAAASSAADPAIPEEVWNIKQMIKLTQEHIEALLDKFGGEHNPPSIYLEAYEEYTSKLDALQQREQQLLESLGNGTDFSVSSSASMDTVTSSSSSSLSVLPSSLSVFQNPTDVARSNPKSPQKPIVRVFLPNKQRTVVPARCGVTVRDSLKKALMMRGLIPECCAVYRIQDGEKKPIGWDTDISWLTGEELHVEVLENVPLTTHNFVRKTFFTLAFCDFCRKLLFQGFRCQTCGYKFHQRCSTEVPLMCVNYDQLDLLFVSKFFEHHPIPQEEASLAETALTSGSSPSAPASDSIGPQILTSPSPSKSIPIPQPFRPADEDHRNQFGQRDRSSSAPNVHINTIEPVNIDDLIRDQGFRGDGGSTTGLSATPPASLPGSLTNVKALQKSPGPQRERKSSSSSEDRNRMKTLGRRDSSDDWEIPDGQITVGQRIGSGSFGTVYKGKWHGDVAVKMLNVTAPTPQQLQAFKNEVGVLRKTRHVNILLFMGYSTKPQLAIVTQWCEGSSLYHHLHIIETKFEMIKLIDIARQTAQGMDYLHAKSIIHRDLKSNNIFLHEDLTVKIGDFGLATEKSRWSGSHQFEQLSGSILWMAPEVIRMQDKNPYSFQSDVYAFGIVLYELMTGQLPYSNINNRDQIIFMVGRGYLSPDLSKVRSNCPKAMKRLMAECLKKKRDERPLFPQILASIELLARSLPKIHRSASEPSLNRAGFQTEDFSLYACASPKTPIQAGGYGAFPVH

For `CCN1CCN(c2cc(NC(=O)c3ccc(C)c(Nc4ncnc5c(N)nc(N6CC[C@H](F)C6)nc45)c3)cc(C(F)(F)F)c2)CC1` [I-88], it took 10 nM to reach half-maximal inhibition (IC50).
As for `Cc1ccc(NC(=O)c2cccc(C(F)(F)F)c2)cc1Nc1ncnc2c(N)nc(N3CCN(C)CC3)nc12` [II-1], half-maximal inhibition (IC50) required 26 nM.
Next, `Cc1ccc(NC(=O)c2cccc(C(F)(F)F)c2)cc1Nc1ncnc2c(N)nc(N3CCCN(C)CC3)nc12` [II-2]: 41 nM; `Cc1ccc(NC(=O)c2cccc(C(F)(F)F)c2)cc1Nc1ncnc2c(N)nc(NN3CCN(C)CC3)nc12` [II-3]: 50 nM.
Compound `Cc1ccc(NC(=O)c2cccc(C(F)(F)F)c2)cc1Nc1ncnc2c(N)nc(NCc3ccncc3)nc12` [II-4] returned an IC50 of 81 nM.
Next, `Cc1ccc(NC(=O)c2cccc(C(F)(F)F)c2)cc1Nc1ncnc2c(N)nc(NCc3cccnc3)nc12` [II-5]: 50 nM.
In turn, `Cc1ccc(NC(=O)c2cccc(C(F)(F)F)c2)cc1Nc1ncnc2c(N)nc(NCc3ccccn3)nc12` [II-6] displayed an IC50 of 96 nM.
The compound `Cc1ccc(NC(=O)c2cccc(C(F)(F)F)c2)cc1Nc1ncnc2c(N)nc(N(C)C)nc12` [II-7] showed an IC50 of 15 nM.
Compound `Cc1ccc(NC(=O)c2cccc(C(F)(F)F)c2)cc1Nc1ncnc2c(N)nc(N3CCN(C4CCN(C)CC4)CC3)nc12` [II-8] registered an IC50 of 2 nM.
Next, `Cc1ccc(NC(=O)c2cccc(C(F)(F)F)c2)cc1Nc1ncnc2c(N)nc(N3CCN(C4CCCC4)CC3)nc12` [II-9]: 24 nM; `Cc1ccc(NC(=O)c2cccc(C(F)(F)F)c2)cc1Nc1ncnc2c(N)nc(N3CCCN(C4CC4)CC3)nc12` [II-10]: 25 nM; `Cc1ccc(NC(=O)c2cccc(C(F)(F)F)c2)cc1Nc1ncnc2c(N)nc(N3CCCNCC3)nc12` [II-11]: 20 nM.
Next, `Cc1ccc(NC(=O)c2cccc(C(F)(F)F)c2)cc1Nc1ncnc2c(N)nc(N3CCCN(c4ccncc4)CC3)nc12` [II-12]: 7 nM.
As to `Cc1ccc(NC(=O)c2cccc(C(F)(F)F)c2)cc1Nc1ncnc2c(N)nc(N3C[C@H](C)NC[C@H]3C)nc12` [II-13], 7 nM corresponded to half-maximal inhibition (IC50).
Consider `Cc1ccc(NC(=O)c2cccc(C(F)(F)F)c2)cc1Nc1ncnc2c(N)nc(N3CCN(CC4CCN(C)CC4)CC3)nc12` [II-14], for which the IC50 was determined as 4 nM.
In turn, `Cc1ccc(NC(=O)c2cccc(C(F)(F)F)c2)cc1Nc1ncnc2c(N)nc(N3CC(C)NC(C)C3)nc12` (stereo not drawn) [II-15] had an IC50 of 40 nM.
Next, `Cc1ccc(NC(=O)c2cccc(C(F)(F)F)c2)cc1Nc1ncnc2c(N)nc(N3CCCN(c4ncccn4)CC3)nc12` [II-16]: 45 nM; `Cc1ccc(NC(=O)c2cccc(C(F)(F)F)c2)cc1Nc1ncnc2c(N)nc(N3CCN(C(C)C)CC3)nc12` [II-17]: 13 nM.
Take `Cc1ccc(NC(=O)c2cccc(C(F)(F)F)c2)cc1Nc1ncnc2c(N)nc(N3CC4CC3CN4C)nc12` (stereo not drawn) [II-18]: inhibition was half-maximal at 9 nM (IC50).
Next, `Cc1ccc(NC(=O)c2cccc(C(F)(F)F)c2)cc1Nc1ncnc2c(N)nc(N3CCNCC3)nc12` [II-19]: 9 nM.
Next, `COc1ccc(NC(=O)c2ccc(C)c(Nc3ncnc4cnc(N5CCN(C)CC5)nc34)c2)cc1C(F)(F)F` [III-1]: 2 nM; `COc1ccc(NC(=O)c2ccc(C)c(Nc3ncnc4cnc(N5CCOCC5)nc34)c2)cc1C(F)(F)F` [III-2]: under 1 nM.
Next, `Cc1ccc(C(=O)NCc2cccc(C(C)(C)C)c2)cc1Nc1ncnc2cnc(N(C)CCN(C)C)nc12` [III-3]: 118 nM; `COCCN(C)c1ncc2ncnc(Nc3cc(C(=O)Nc4ccc(OC)c(C(F)(F)F)c4)ccc3Cl)c2n1` [III-4]: 2 nM; `COc1ccc(NC(=O)c2ccc(Cl)c(Nc3ncnc4cnc(N(C)CCN(C)C)nc34)c2)cc1C(F)(F)F` [III-5]: 2 nM.
`COc1ccc(NC(=O)c2ccc(Cl)c(Nc3ncnc4cnc(N5CCCCCC5)nc34)c2)cc1C(F)(F)F` [III-6] had an IC50 of 7 nM.
Compound `COc1ccc(NC(=O)c2ccc(Cl)c(Nc3ncnc4cnc(N5CCCN(C)CC5)nc34)c2)cc1C(F)(F)F` [III-7] had an IC50 of 1 nM.
Next, `COc1ccc(NC(=O)c2ccc(Cl)c(Nc3ncnc4cnc(N(C)CCN5CCCC5)nc34)c2)cc1C(F)(F)F` [III-8]: 3 nM.
`COc1ccc(NC(=O)c2ccc(Cl)c(Nc3ncnc4cnc(N5CCN(C)CC5)nc34)c2)cc1C(F)(F)F` [III-9] came in with an IC50 of 7 nM.
Next, `COc1ccc(NC(=O)c2ccc(Cl)c(Nc3ncnc4cnc(N5CCCCC5)nc34)c2)cc1C(F)(F)F` [III-10]: 6 nM; `COc1ccc(NC(=O)c2ccc(Cl)c(Nc3ncnc4cnc(NCCCN5CCOCC5)nc34)c2)cc1C(F)(F)F` [III-11]: 4 nM.
For the compound `COc1ccc(NC(=O)c2ccc(Cl)c(Nc3ncnc4cnc(N5CCOCC5)nc34)c2)cc1C(F)(F)F` [III-12], inhibition was half-maximal at 2 nM (IC50).
With `COc1ccc(NC(=O)c2ccc(Cl)c(Nc3ncnc4cnc(N5CCCC5)nc34)c2)cc1C(F)(F)F` [III-13], the IC50 came out at 9 nM.
As for `COc1ccc(NC(=O)c2ccc(Cl)c(Nc3ncnc4cnc(NCCN(C)C)nc34)c2)cc1C(F)(F)F` [III-14], the half-maximal inhibitory concentration (IC50) came to 3 nM.
Compound `COc1ccc(NC(=O)c2ccc(Cl)c(Nc3ncnc4cnc(NCCN5CCOCC5)nc34)c2)cc1C(F)(F)F` [III-15] returned an IC50 of 5 nM.
Next, `COc1ccc(NC(=O)c2ccc(Cl)c(Nc3ncnc4cnc(N(C)C)nc34)c2)cc1C(F)(F)F` [III-16]: 2 nM.
`COCCN(C)c1ncc2ncnc(Nc3cc(C(=O)Nc4ccc(OC)c(C(F)(F)F)c4)ccc3OC)c2n1` [III-17] returned an IC50 of 3 nM.
In the case of `COc1ccc(C(=O)Nc2ccc(OC)c(C(F)(F)F)c2)cc1Nc1ncnc2cnc(N(C)CCN(C)C)nc12` [III-18], the IC50 stood at 4 nM.
Next, `COc1ccc(C(=O)Nc2ccc(OC)c(C(F)(F)F)c2)cc1Nc1ncnc2cnc(N3CCCCCC3)nc12` [III-19]: 1 nM; `COc1ccc(C(=O)Nc2ccc(OC)c(C(F)(F)F)c2)cc1Nc1ncnc2cnc(N3CCCN(C)CC3)nc12` [III-20]: 3 nM; `COc1ccc(C(=O)Nc2ccc(OC)c(C(F)(F)F)c2)cc1Nc1ncnc2cnc(N(C)CCN3CCCC3)nc12` [III-21]: 3 nM.
Consider `COc1ccc(C(=O)Nc2ccc(OC)c(C(F)(F)F)c2)cc1Nc1ncnc2cnc(N3CCN(C)CC3)nc12` [III-22], for which the IC50 was 6 nM.
Regarding `COc1ccc(C(=O)Nc2ccc(OC)c(C(F)(F)F)c2)cc1Nc1ncnc2cnc(N3CCCCC3)nc12` [III-23], the IC50 was determined as 7 nM.
Next, `COc1ccc(C(=O)Nc2ccc(OC)c(C(F)(F)F)c2)cc1Nc1ncnc2cnc(NCCCN3CCOCC3)nc12` [III-24]: 5 nM; `COc1ccc(C(=O)Nc2ccc(OC)c(C(F)(F)F)c2)cc1Nc1ncnc2cnc(N3CCOCC3)nc12` [III-25]: 2 nM.
Next, `COc1ccc(C(=O)Nc2ccc(OC)c(C(F)(F)F)c2)cc1Nc1ncnc2cnc(N3CCCC3)nc12` [III-26]: 24 nM; `COc1ccc(C(=O)Nc2ccc(OC)c(C(F)(F)F)c2)cc1Nc1ncnc2cnc(NCCN(C)C)nc12` [III-27]: 8 nM; `COc1ccc(C(=O)Nc2ccc(OC)c(C(F)(F)F)c2)cc1Nc1ncnc2cnc(NCCN3CCOCC3)nc12` [III-28]: 3 nM.
Next, `COc1ccc(C(=O)Nc2ccc(OC)c(C(F)(F)F)c2)cc1Nc1ncnc2cnc(N(C)C)nc12` [III-29]: 2 nM; `COCCN(C)c1ncc2ncnc(Nc3cc(C(=O)Nc4ccc(OC)c(C(F)(F)F)c4)ccc3F)c2n1` [III-30]: 2 nM.
Compound `COc1ccc(NC(=O)c2ccc(F)c(Nc3ncnc4cnc(N(C)CCN(C)C)nc34)c2)cc1C(F)(F)F` [III-31] gave an IC50 of under 1 nM.
Next, `COc1ccc(NC(=O)c2ccc(F)c(Nc3ncnc4cnc(N5CCCCCC5)nc34)c2)cc1C(F)(F)F` [III-32]: 1 nM; `COc1ccc(NC(=O)c2ccc(F)c(Nc3ncnc4cnc(N(C)CCN5CCCC5)nc34)c2)cc1C(F)(F)F` [III-33]: 1 nM.
Next, `COc1ccc(NC(=O)c2ccc(F)c(Nc3ncnc4cnc(N5CCN(C)CC5)nc34)c2)cc1C(F)(F)F` [III-34]: 2 nM.
